Where two headings read alike, the source gives them in different places.
What was measured:
[1] = after oral administration of tramadol (single dose of 100 mg); cited from earlier work
[2] = Example 1: multiple-dose randomized 3-way crossover PK study of two IV tramadol regimens vs 100 mg oral q6h; conditions: mean; for AUCtau n: last dosing interval
Protocol: A fitted curve was obtained because the second oral peak was not measured in the study. For the modeling portion of the analysis, a validated Phoenix® WinNonlin® program version 6.4 (Certara) was used for PK analysis, simulation, graphics, tables and statistical calculations. […] For purposes of nonlinear regression, the data were weighted as 1/observed. Predicted concentration-time data were calculated based on the individual fitted PK parameters.

[3] = tested on: experienced opioid abusers; conditions: tramadol 100 and 200 mg IV, cited from earlier work
postoperative pain = conditions: after 4 to 6 hours; IV or IM intermittent injection, dose titrated to pain response; cited from earlier work
[4] = tested on: patients undergoing abdominal surgery; conditions: initial tramadol 100 mg or morphine 5 mg i.v., repeat tramadol 50 mg or morphine 5 mg on demand; cited from earlier work
[5] = Example 4: multiple dose steady-state dose proportionality study, tramadol injection 50/100 mg IV and Ultram tablet 50/100 mg oral q6h; format: in vivo, human; conditions: steady-state, healthy volunteers
Protocol: The study was an open-label, single-period, randomized, parallel treatment design. Subjects received study drug every 6 hours beginning on the morning of Day 1 and ending on the morning of Day 3. The first dose on Day 1 and the last dose on Day 3 were administered after a minimum 10 hour fast.

[6] = tramadol single […] [100 mg] p.o., humans N=12 male; cited from earlier work
[7] = 50 mg IV regimen (h 0, 2, 4, then q4h to h 44), plasma
[8] = 75 mg IV regimen (h 0, 3, 6, then q6h to h 42)
[9] = 75 mg IV regimen (h 0, 3, 6, then q6h to h 42), plasma
[10] = 100 mg oral q6h to h 42, plasma
[11] = Tramadol dosed as 50 mg IV every 6 hours
[12] = Tramadol dosed as 50 mg Oral (Ultram tablet) every 6 hours
[13] = Tramadol dosed as 100 mg IV every 6 hours
[14] = Tramadol dosed as 100 gm Oral (Ultram tablet) every 6 hours

In the case of CN(C)C[C@H]1CCCC[C@]1(O)c1cccc(O)c1 [O-desmethyltramadol], the half-life [1] is given as “approximately 6.7 hours”, the “Cmax(0-2)” value ([2]; 50 mg IV regimen (h 0, 2, 4, then q4h to h 44), first dose, plasma) is given as 17.1 ng/mL and the “RAC(trough)” value ([2]; 50 mg IV regimen (h 0, 2, 4, then q4h to h 44)) is given as 5.2872. For the same compound, the AUC0-24 [2, 7] was 1425 ng·h/mL, the AUC0-48 [2, 7] was 3427 ng·h/mL and the AUC24-48 [2, 7] was 2002 ng·h/mL. For the same compound, the C2 [2, 7] was 16.9 ng/mL, the “C48 (T48)” value [2, 7] was 81.7 ng/mL and the C1 h [2, 7] was 11.8 ng/mL. The “Cmax(2-4)” value [2, 7] was 37.8 ng/mL, the Css [2, 7] was 88.9 ng/mL and the Tmax [2, 7] was 44.95 h. For the same compound, the “Tmax(0-2)” value [2, 7] was 1.85 h, the “Tmax(2-4)” value [2, 7] was 3.95 h and the “Tmax(44-48)” value [2, 7] was 45.31 h. For the same compound, the “Cmax(0-3)” value ([2]; 75 mg IV regimen (h 0, 3, 6, then q6h to h 42), first dose, plasma) was 29.7 ng/mL, the AUCtau n [2, 8] was 519.8 ng·h/mL and the “RAC(trough)” value [2, 8] was 2.7237. The AUC0-24 [2, 9] was 1608 ng·h/mL, the AUC0-48 [2, 9] was 3504 ng·h/mL and the AUC24-48 [2, 9] was 1896 ng·h/mL. For the same compound, the C3 [2, 9] was 29.5 ng/mL, the “C48 (T48)” value [2, 9] was 75.9 ng/mL and the C1 h [2, 9] was 19.9 ng/mL. The “Cmax(3-6)” value [2, 9] was 59.4 ng/mL, the Css [2, 9] was 86.6 ng/mL and the Tmax [2, 9] was 32.99 h. For the same compound, the “Tmax(0-3)” value [2, 9] was 2.71 h, the “Tmax(3-6)” value [2, 9] was 5.81 h and the “Tmax(42-48)” value [2, 9] was 43.10 h. The “Cmax(0-6)” value ([2]; 100 mg oral q6h to h 42, first dose, plasma) was 60.3 ng/mL, the AUCtau n ([2]; 100 mg oral q6h to h 42) was 768.4 ng·h/mL and the “RAC(trough)” value ([2]; 100 mg oral q6h to h 42) was 2.7839. The AUC0-24 [2, 10] was 1655 ng·h/mL, the AUC0-48 [2, 10] was 4349 ng·h/mL and the AUC24-48 [2, 10] was 2693 ng·h/mL. For the same compound, the C6 [2, 10] was 42.3 ng/mL, the “C48 (T48)” value [2, 10] was 111 ng/mL and the C1 h [2, 10] was 41.4 ng/mL. It also gave a Cmax [2, 10] of 146 ng/mL, a Css [2, 10] of 128 ng/mL and a Tmax [2, 10] of 43.97 h. The “Tmax(0-6)” value [2, 10] was 2.04 h, the “Tmax(42-48)” value [2, 10] was 43.97 h and the “Cmax(42-48)” value ([2]; 100 mg oral q6h to h 42, steady-state, plasma) was 146 ng/mL.
For CN1CC[C@]23c4c5ccc(O)c4O[C@H]2[C@@H](O)C=C[C@H]3[C@H]1C5 [morphine], the “ratings of “liking”” value ([3]; morphine 10 and 20 mg IV, over 5 minutes, 10 experienced opioid abusers) is given as “significantly increased ratings”, the “ratings of “feel drug effect” compared to placebo” value ([3]; morphine 10 and 20 mg IV, over 5 minutes) is given as “significantly increased” and the “ratings on the ARCI-MBG scale” value ([3]; morphine 20 mg IV) is given as “increased ratings”. For the same compound, the “reduction of pain intensity” value (postoperative pain) was 69.8% and the “responder rate (no or slight pain) within the first 90 minutes of treatment” value [4] was 81.2%.
With CN(C)C[C@H]1CCCC[C@]1(O)c1cccc(O)c1 [tramadol M1 metabolite] the “Cmin, tramadol M1 metabolite, Mean ± SD” value [5, 11] was 55.9 ± 7.4 ng/mL, the “Trough Peak, tramadol M1 metabolite, Mean ± SD” value (“Trough Peak … Mean ± SD” below) [5, 11] was 0.715 ± 0.044 ratio and the “Cmin, tramadol M1 metabolite, Mean ± SD” value [5, 12] was 65.9 ± 15.8 ng/mL. For the same compound, the “Trough Peak … Mean ± SD” value [5, 12] was 0.670 ± 0.061 ratio, the “Cmin, tramadol M1 metabolite, Mean ± SD” value [5, 13] was 130 ± 37 ng/mL and the “Trough Peak … Mean ± SD” value [5, 13] was 0.795 ± 0.040 ratio. The “Cmin, tramadol M1 metabolite, Mean ± SD” value [5, 14] was 93.6 ± 34.6 ng/mL and the “Trough Peak … Mean ± SD” value [5, 14] was 0.707 ± 0.080 ratio.
For (+)-O-desmethyltramadol [(+)-M1], the AUC [6] is listed as 1258 ± 410 ng·h/mL, the Cmax [6] is listed as 147 ± 39 ng/mL and the Tmax [6] is listed as 1.6 ± 0.5 h. The t1/2 [6] was 6.0 ± 1.0 h.

From patent publication US10537521B2 (priority 2016, dated 2020)
